Reference: publication PMC11002876, “KcsA-Kv1.x chimeras with complete ligand-binding sites provide improved predictivity for screening selective Kv1.x blockers” (The Journal of Biological Chemistry, 2024)
Numbering of substitutions follows the chain as printed. Entries after “also recorded” stand apart in the source; their conditions may differ. Read-outs that look alike come from different tables or passages of the source. Where a SMILES comes first, the peptide text is derived from it.

Legend:
[1] = target: T1, KcsA-Kv1.3 T-only chimera (Streptomyces lividans, UniProt P0A334, A54D/A57S/G53D/G56T/I60S/L59F/Q58G/R52A/R64D/T61S/Y62I); experiment: Phage-binding competition assay, KcsA-Kv1.3 T-only; set-up: species or system human Kv1.3 turret in Streptomyces lividans KcsA; conditions: for IC50: HgTx1-phage competition, T-only KcsA-Kv1.3, value given in figure, sigmoidal fit to means of three replicates, read-out: IC50 (Fig. 6E); for Rank, T-only chimera (Kv1.3): rank by competition IC50 among Vm24, HgTx1, KTX1
T1 construct: made in house; host or cells: E. coli XL1-Blue (pQE30)
T1 sequence (P0A334 1-160 R52A/G53D/A54D/G56T/A57S/Q58G/L59F/I60S/T61S/Y62I/R64D): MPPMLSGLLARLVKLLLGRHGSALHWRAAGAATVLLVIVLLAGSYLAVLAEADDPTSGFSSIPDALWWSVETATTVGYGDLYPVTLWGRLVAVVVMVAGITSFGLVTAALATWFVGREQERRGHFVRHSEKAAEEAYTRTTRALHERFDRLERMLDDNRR
Protocol: (§1) Phage stock solutions were diluted to working concentration with phage resuspension buffer supplemented with 2 mM DDM. For protein immobilization, the following amounts were used in a final volume of 50 μl/well: wt KcsA, 0.1 μg; KcsA-Kv1.1 T-only, 0.005 μg; KcsA-Kv1.1 T+F, 0.02 μg; KcsA-Kv1.2 T-only, 0.01 μg; KcsA-Kv1.2 T+F, 0.1 μg; KcsA-Kv1.3 T-only, 0.01 μg; and KcsA-Kv1.3 T+F, 0.1 μg. Protein samples were diluted in 50 μl of storage buffer (20 mM Tris pH8.0, 300 mM KCl, 2 mM DDM) and were added to the designated wells of a Pierce Clear, 96-Well Nickel Coated Plate (15442, Thermo Fisher Scientific), then incubated for 1 h at room temperature on a horizontal shaker at 130 rpm. The plate was blocked for 1 h at room temperature with 180 μl/well TBS-BSA supplemented with 1 mM DDM. Following blocking, the wells were washed 4× with washing buffer (300 μl TBS-Tween, 0.1% v/v) using a Wellwash Versa microplate washer (Thermo Fisher Scientific); then 50 μl phage solution (in TBS-BSA-Tween, 0.1% v/v, 2 mM DDM) at determined phage concentration was added to the wells and incubated for 1 h at room temperature on a horizontal shaker. The plate was washed 4× with washing buffer, then 50 μl anti-M13 IgG HRP (MA5-36125, Invitrogen) diluted to 1:2500 in TBS-Tween (0.1% v/v) was added to the wells and incubated for 1 h at room temperature. The plate was washed again 4× with 300 μl/well washing buffer. Finally, 50 μl/well 1-Step Ultra TMB-ELISA solution (34028, Thermo Fisher Scientific) was added to the wells, and the developing signal was stopped with 50 μl 1M HCl after 5 to 10 min. The light absorbance signal was read at 450 nm with Byonoy absorbance 96 plate reader (Byonoy GmbH).
(§2) For protein immobilization, the following amounts were used in a final volume of 50 μl/well: KcsA-Kv1.1 T-only, 0.005 μg; KcsA-Kv1.1 T+F, 0.01 μg; KcsA-Kv1.2 T-only, 0.025 μg; KcsA-Kv1.2 T+F, 0.0125 μg; KcsA-Kv1.3 T-only, 0.01 μg; and KcsA-Kv1.3 T+F, 0.1 μg. Protein samples were diluted in storage buffer. Binding of given concentrations of relevant ligand-displaying phages quantified by light absorbance ([…]) were investigated in a similar manner as in phage ELISA-binding assay, while different concentrations of competing toxin test substances were applied simultaneously. The results were converted to percent inhibitions (percent displacement) of the indicator phage binding, and relative affinities of the tested toxins were assessed by plotting percent displacements against log concentrations and determining half maximal inhibitory concentrations (IC50) by sigmoidal curve fitting using “Sigmoidal dose-response (variable slope) with least squares method” algorithm in GraphPad Prism 8 using the following equation: Y=Bottom+Top−Bottom/1+10^(LogEC50−×)⋅HillSlope

human Kv1.1 = conditions: cited from earlier work
human Kv1.3 = conditions: cited from earlier work; for IC50: human Kv1.3 channel blocking, patch-clamp, read-out: IC50, Kv1.x blocking (Kv1.3)
Source text: Table 1 Summary of chimeric protein-binding prediction studies in the light of IC50 values | column: Kv1.x blocking / IC50 (nM) || Peptide toxins of venomous animal origin as lead molecules for optimization may offer an advantage over small molecules in terms of potentially greater affinity and specificity. These miniproteins are usually up to 50 amino acids in length and can adopt distinct conformation with secondary structural elements stabilized by several disulfide bonds ([9], [10], [11]). Due to their considerable surface area, miniproteins can form stable complexes with target proteins through extensive interaction surfaces ([12], [13]). The miniprotein Kv1.3 blocker drug candidate, Dalazatide—a synthetic derivative ... || Our initial investigation focused on assessing the relative binding affinities of various channel-blocking toxins to the T-only version of the KcsA-Kv1.3 chimera. Subsequently, we evaluated whether these affinities aligned with the toxins' blocking efficacy on native human Kv1.3 channels, as determined by patch-clamp assay.

[2] = target: T2, KcsA-Kv1.2 T-only chimera (Streptomyces lividans, UniProt P0A334, A54E/A57S/G53D/G56E/I60P/L59F/P55R/R52A/R64D/T61S/Y62I); experiment: Phage-binding competition assay, KcsA-Kv1.2 T-only; set-up: species or system human Kv1.2 turret in Streptomyces lividans KcsA
T2 sequence (P0A334 1-160 R52A/G53D/A54E/P55R/G56E/A57S/L59F/I60P/T61S/Y62I/R64D): T1 sequence (P0A334 1-160 R52A/G53D/A54D/G56T/A57S/Q58G/L59F/I60S/T61S/Y62I/R64D) with D54E, P55R, T56E, G58Q, S60P
Protocol: as §1, §2

[3] = target: T3, KcsA-Kv1.2 T-only chimera (Streptomyces lividans, UniProt P0A334, R52A/G53D/A54E/P55R/G56E/A57S/L59F/I60P/T61S/Y62I/R64D); experiment: Phage-binding competition assay, KcsA-Kv1.2 T-only; set-up: species or system human Kv1.2 turret in Streptomyces lividans KcsA; conditions: for binding to KcsA-Kv1.2 T-only, in words: HgTx1-phage competition, Fig. 7E (ligand-binding pattern); for Rank, T-only chimera (Kv1.2): rank by competition IC50 among MTX, ShK, KTX1
T3 sequence (P0A334 1-160 R52A/G53D/A54E/P55R/G56E/A57S/L59F/I60P/T61S/Y62I/R64D): T1 sequence (P0A334 1-160 R52A/G53D/A54D/G56T/A57S/Q58G/L59F/I60S/T61S/Y62I/R64D) with D54E, P55R, T56E, G58Q, S60P
Protocol: as §1, §2

SMILES: CC[C@H](C)[C@@H]1NC(=O)CNC(=O)[C@H](Cc2ccccc2)NC(=O)[C@H](CCC(N)=O)NC(=O)[C@H](C)NC(=O)[C@H](CCCCN)NC(=O)[C@@H]2CSSC[C@@H](C(=O)N[C@@H](Cc3ccc(O)cc3)C(=O)N3CCC[C@H]3C(=O)N[C@@H](Cc3c[nH]cn3)C(=O)O)NC(=O)[C@H](CCCCN)NC(=O)[C@@H]3CSSC[C@H](NC(=O)[C@H](CCC(N)=O)NC(=O)[C@H](CCCCN)NC(=O)[C@@H]4CCCN4C(=O)[C@H](CO)NC(=O)[C@H]([C@@H](C)O)NC(=O)[C@@H](NC(=O)[C@H](CCCCN)NC(=O)[C@@H](NC(=O)[C@H](CC(=O)O)NC(=O)[C@@H](NC(=O)[C@@H](NC(=O)[C@@H](N)[C@@H](C)O)C(C)C)[C@@H](C)CC)C(C)C)CSSC[C@H](NC(=O)[C@H](CCCCN)NC(=O)[C@H](C)NC(=O)CNC(=O)[C@H](C)NC(=O)[C@H](CCCNC(=N)N)NC1=O)C(=O)N[C@@H](CCSC)C(=O)N[C@@H](CC(N)=O)C(=O)NCC(=O)N[C@@H](CCCCN)C(=O)N3)C(=O)N[C@@H](CC(C)C)C(=O)N1CCC[C@H]1C(=O)N1CCC[C@H]1C(=O)N2 [HgTx1, Hongotoxin-1] (HELM PEPTIDE1{T.V.I.D.V.K.C.T.S.P.K.Q.C.L.P.P.C.K.A.Q.F.G.I.R.A.G.A.K.C.M.N.G.K.C.K.C.Y.P.H}$PEPTIDE1,PEPTIDE1,7:R3-29:R3|PEPTIDE1,PEPTIDE1,13:R3-34:R3|PEPTIDE1,PEPTIDE1,17:R3-36:R3$$$V2.0; N-terminus and C-terminus assumed)
- IC50 [1]: 0.671 nM
- Rank, T-only chimera (Kv1.3) [1]: 3
- inhibition of Kv1.1, in words (human Kv1.1): equivalent high potency
- inhibition of Kv1.3, in words (human Kv1.3): equivalent high potency
- IC50 (human Kv1.3): 0.086 nM

SMILES: CC[C@H](C)[C@@H]1NC(=O)[C@@H]2CSSC[C@H](NC(=O)[C@H](CO)NC(=O)[C@@H](N)C(C)C)C(=O)N[C@@H]([C@@H](C)O)C(=O)NCC(=O)N[C@@H](CO)C(=O)N[C@@H](CCCCN)C(=O)N[C@@H](CC(=O)O)C(=O)N[C@@H](CSSC[C@@H](C(=O)N[C@@H](CCCCN)C(=O)N[C@H]3CSSC[C@@H](C(N)=O)NC(=O)CNC(=O)[C@H](Cc4ccc(O)cc4)NC3=O)NC(=O)[C@H](CO)NC(=O)[C@H](CCCCN)NC(=O)[C@H](CC(N)=O)NC1=O)C(=O)N[C@@H](Cc1ccc(O)cc1)C(=O)N[C@@H](C)C(=O)N1CCC[C@H]1C(=O)N[C@H]1CSSC[C@H](NC(=O)CNC(=O)[C@H]([C@@H](C)O)NC(=O)[C@H](CCC(N)=O)NC(=O)[C@H](CCCCN)NC(=O)[C@H](CCCNC(=N)N)NC1=O)C(=O)N1CCC[C@H]1C(=O)N[C@@H](CC(N)=O)C(=O)N[C@@H](C)C(=O)N[C@@H](CCCCN)C(=O)N2 [MTX, Maurotoxin] (HELM PEPTIDE1{V.S.C.T.G.S.K.D.C.Y.A.P.C.R.K.Q.T.G.C.P.N.A.K.C.I.N.K.S.C.K.C.Y.G.C.[am]}$PEPTIDE1,PEPTIDE1,3:R3-24:R3|PEPTIDE1,PEPTIDE1,9:R3-29:R3|PEPTIDE1,PEPTIDE1,13:R3-19:R3|PEPTIDE1,PEPTIDE1,31:R3-34:R3$$$V2.0; N-terminus and C-terminus assumed)
- IC50 (human Kv1.1; human Kv1.1 channel blocking, patch-clamp, read-out: IC50, Kv1.x blocking (Kv1.1)): > 100 nM
- IC50 ([2]; displacement of HgTx1-phage, KcsA-Kv1.2 T-only 0.025 μg/well on nickel-coated plate, mean ± SD (n = 3), NQ = not quantifiable, read-out: IC50, T-only chimera (Kv1.2)): > 1000 nM
- binding to KcsA-Kv1.2 T-only, in words [3]: ShK > KTX1 > MTX; also recorded: completely lost its affinity
- binding to KcsA-Kv1.2 T-only, in words ([3]; listed as MTX1): negligible binding
- Rank, T-only chimera (Kv1.2) [3]: 3

SMILES: CC[C@H](C)[C@@H]1NC(=O)[C@@H](NC(=O)[C@H](CO)NC(=O)[C@@H](N)CCCNC(=N)N)CSSC[C@@H](C(=O)O)NC(=O)[C@H]([C@@H](C)O)NC(=O)CNC(=O)[C@@H]2CSSC[C@@H]3NC(=O)[C@H](CCC(N)=O)NC(=O)[C@H](Cc4ccccc4)NC(=O)[C@H](C)NC(=O)[C@H]([C@@H](C)O)NC(=O)[C@H](CSSC[C@H](NC(=O)[C@H](Cc4ccccc4)NC(=O)[C@H](CO)NC(=O)[C@H](CC(C)C)NC(=O)[C@H](CCCNC(=N)N)NC(=O)[C@H](Cc4ccc(O)cc4)NC(=O)[C@H](CCCCN)NC(=O)[C@H](CCSC)NC(=O)[C@H](CO)NC(=O)[C@H](Cc4c[nH]cn4)NC(=O)[C@H](CCCCN)NC3=O)C(=O)N[C@@H](CCCNC(=N)N)C(=O)N[C@@H](CCCCN)C(=O)N[C@@H]([C@@H](C)O)C(=O)N2)NC(=O)[C@H](CCCNC(=N)N)NC(=O)[C@H](CO)NC(=O)[C@H](CCCCN)NC(=O)[C@@H]2CCCN2C(=O)[C@H]([C@@H](C)CC)NC(=O)[C@H]([C@@H](C)O)NC(=O)[C@H](CC(=O)O)NC1=O [ShK, Stichodactyla toxin]
- IC50 ([2]; HgTx1-phage competition, KcsA-Kv1.2 T-only, value given in figure, sigmoidal fit to means of three replicates, read-out: IC50 (Fig. 7E)): 0.0701 nM
- binding to KcsA-Kv1.2 T-only, in words [3]: inconsistent with their published channel blocking potencies; also recorded: ShK > KTX1 > MTX
- Rank, T-only chimera (Kv1.2) [3]: 1

SMILES: CC[C@H](C)[C@H](NC(=O)[C@H](C)NC(=O)[C@H](C)NC(=O)[C@H](C)N)C(=O)N[C@@H](CO)C(=O)N[C@H]1CSSC[C@@H]2NC(=O)[C@H](CCCCN)NC(=O)CNC(=O)[C@H](CC(N)=O)NC(=O)[C@H](CCCCN)NC(=O)[C@@H]3CSSC[C@@H](C(N)=O)NC(=O)[C@H](Cc4ccc(O)cc4)NC(=O)[C@H](Cc4ccc(O)cc4)NC(=O)[C@@H]4CSSC[C@H](NC(=O)[C@H](CCCCN)NC(=O)[C@@H]5CCCN5C(=O)[C@@H]5CCCN5C(=O)[C@H](CSSC[C@H](NC(=O)[C@H](CCCCN)NC(=O)[C@H](CCCNC(=N)N)NC(=O)[C@H](CC(N)=O)NC(=O)[C@H](CCSC)NC2=O)C(=O)N[C@@H](CCCCN)C(=O)N4)NC(=O)[C@H](CCC(=O)O)NC(=O)[C@@H]2CCCN2C(=O)[C@H](CO)NC(=O)CNC(=O)[C@H](C(C)C)NC1=O)C(=O)N[C@@H](CCCNC(=N)N)C(=O)N[C@@H](C)C(=O)N[C@@H](CCC(N)=O)C(=O)NCC(=O)N3 [Vm24, Vm24 toxin]
- IC50 [1]: 0.603 nM
- Rank, T-only chimera (Kv1.3) [1]: 2
- IC50 (human Kv1.3): 0.003 nM
